# Measured values reported in publication PMC10076643, “Design, synthesis and anticancer activity studies of 3-(coumarin-3-yl)-acrolein derivatives: Evidenced by integrating network pharmacology and vitro assay” (Frontiers in Pharmacology, 2023).
# Tests used:
# Format in all cases: cell-based, human
# KB cells [1] = assay: Annexin V-FITC/PI dual staining apoptosis assay (flow cytometry)
# Protocol: To investigate whether compound 6e could induce cell apoptosis, KB cells were treated with compound 6e in different concentrations for 48 h and the Annexin V-FITC/PI dual staining assay was carried out flow cytometry.
# KB cells (5×10^5 cells/well) were seeded into six-well plates. […] Afterwards, cells were collected, washed twice with cold PBS. Then the treated cells were resuspended with 400 μL of 1X Annexin V binding buffer and mixed with 5 μL FITC and 5 μL PI (Annexin V-FITC Apoptosis Analysis Kit, Tianjing), and incubated at room temperature in the dark for 5 min. After the incubation, the samples were immediately analyzed by a Beckman Flow Cytometer.
# KB cells [2] = assay: JC-1 mitochondrial membrane potential (MMP) assay; settings: increasing concentration (0.5 IC50, IC50, 2 IC50), 48 h
# Source text: According to the predicted results of network pharmacology, compound 6e might stimulate the oxidative stress response of cancer cells. Oxidative stress reflects an imbalance between excessive production of reactive free radical and deficits in antioxidant biosystem ([Zhong et al., 2018]). Mitochondria are the main reactors that produce reactive free radicals in cells, and MMP is a key indicator of mitochondrial activity. Excessive oxidative stress can cause a decrease in MMP, which leads to the damage of mitochondrial. It is well-known that mitochondrial damage is a major trigger for the induction of cell apoptosis and necrosis ([Kharroubi et al., 2017]; [Meng et al., 2021]). Therefore, JC-1 staining was used to investigate the effect of compound 6e on the MMP (ΔΨm) of KB cells. In normal cells, JC-1 can form aggregates in healthy mitochondria, emitting red fluorescence, while in apoptotic cells, JC-1 will stay in monomers that emit green fluorescence, implying a low value of ΔΨm. Therefore, mitochondrial depolarization is manifested by a decrease in the ratio of red to green fluorescence intensity.
# MMP was determined using the JC-1 mitochondria staining Kit (Aladdin, China). […] On one hand, JC-1 red and green fluorescence intensities were measured with Varioskan™ LUX Multimode Microplate Reader (Thermo Fisher Scientific, America) under the […]. […]
# Bcl-2 in KB cells = assay: Western blot, Bcl-2; settings: 0.40 μM, 24 h
# Source text: (§1) Based on the results of network pharmacology, the key proteins related to PI3K/AKT pathway were detected by Western blotting to explore the antitumor mechanism of compound 6e. […] Such an inconsistency might be due to a compensatory increase in PI3K level after the reduction of AKT phosphorylation level. Additionally, the active-caspase 3 protein, anti-apoptosis protein Bcl-2 and pro-apoptosis protein Bax were further analyzed. Caspase-3 normally exists in the cytoplasm as zymogen. During the early stage of apoptosis, caspase-3 (32 KD) is cleaved to the active 17-kD caspase-3 fragment, which is responsible for morphological and biochemical changes in apoptosis. Bcl-2 and Bax are the […] located on the mitochondrial membrane and capable of controlling the MMP (ΔΨm) and the activation of caspase cascade.
# (§2) A total of 4 × 10^5 KB cells were seeded into 6-well and grown for overnight. Then the cells adherent to the wall were treated with compound 6e in different concentrations (0, 0.40, 0.80, 1.60 μM) for 24 h. After that, cells were collected, SDS lysate, 100X protease inhibitor and 50X phosphorylation inhibitor were added in a certain proportion to lyse the cells. The protein content was determined by BCA reagent (Beyotime, China) according to the standard curve. […]
# caspase-3 in KB cells = assay: Western blot, caspase-3; settings: 24 h
# Source text: as §1, §2
compound,measurement,setting,value
"O=CC=C(Cl)c1cc2ccc(OCc3ccccc3)cc2oc1=O [Compound 6e, 3-(7-(Benzyloxy)-2-oxo-2H-chromen-3-yl)-3-chloroacrylaldehyde]",apoptotic rate in the early stage (Q1-LR),"KB cells [1]; 0.5 IC50, 48 h",6.99%
same,late apoptotic rate (Q1-UR),"KB cells [1]; 0.5 IC50, 48 h",5.55%
same,total apoptosis rate,"KB cells [1]; 0.5 IC50, 48 h",12.54%
same,apoptotic rate in the early stage (Q1-LR),"KB cells [1]; 2 IC50, 48 h",13.11%
same,late apoptotic rate (Q1-UR),"KB cells [1]; 2 IC50, 48 h",7.22%
same,total apoptosis rate,"KB cells [1]; 2 IC50, 48 h",20.33%
same,apoptotic rate in the early stage (Q1-LR),"KB cells [1]; IC50, 48 h",6.69%
same,late apoptotic rate (Q1-UR),"KB cells [1]; IC50, 48 h",7.30%
same,total apoptosis rate,"KB cells [1]; IC50, 48 h",13.99%
same,JC-1 ratio (red to green fluorescence),KB cells [2],significant decrease
same,expression of Bcl-2 compared with the control group,Bcl-2 in KB cells,visibly decreased
same,proportion of Bcl-2 to Bax,Bcl-2 in KB cells,decrease
same,ratio of cleaved caspase-3 to caspase-3,caspase-3 in KB cells; 0.80 μM,increased
same,expression of the cleaved 17-kD caspase-3,caspase-3 in KB cells; 1.60 μM,upregulated
